In patent publication US12715865B2, “Modulators of the integrated stress response pathway” (EVOTEC INTERNATIONAL GMBH, priority 2020, dated 2026):
Read-outs that look alike come from different tables or passages of the source.

Tested on: Tunicamycin induced ISR (ATF4) in wild-type HEK293 cells
Assay: HEK-ATF4 High Content Imaging assay (ATF4 signal ratio between nucleus and cytoplasm)
Assay type: cell-based
Details: prevention of Tunicamycin induced ISR, 6 hrs incubation, read-out: Activity (IC50, HEK-ATF4 readout)
Protocol: II Biological Assay HEK-ATF4 High Content Imaging Assay
Example compounds were tested in the HEK-ATF4 High Content Imaging assay to assess their pharmacological potency to prevent Tunicamycin induced ISR. Wild-type HEK293 cells were plated in 384-well imaging assay plates at a density of 12,000 cells per well in growth medium (containing DMEM/F12, 10% FBS, 2 mM L-Glutamine, 100 U/mL Penicillin-100 μg/mL Streptomycin) and incubated at 37° C., 5% CO2. 24-hrs later, the medium was changed to 50 μl assay medium per well (DMEM/F12, 0.3% FBS, 2 mM L-Glutamine, 100 U/mL Penicillin-100 μg/mL Streptomycin). Example compounds were serially diluted in dimethyl sulfoxide (DMSO), spotted into intermediate plates and prediluted with assay medium containing 3.3 μM Tunicamycin to give an 11-fold excess of final assay concentration. In addition to the example compound testing area, the plates also contained multiples of control wells for assay normalization purposes, wells containing Tunicamycin but no example compounds (High control), as well as wells containing neither example compound nor Tunicamycin (Low control). The assay was started by transferring 5 μl from the intermediate plate into the assay plates, followed by incubation for 6 hrs at 37° C., 5% CO2. Subsequently, cells were fixed (4% PFA in PBS, 20 min at room temperature) and submitted to indirect ATF4 immunofluorescence staining (primary antibody rabbit anti ATF4, clone D4B8, Cell Signaling Technologies; secondary antibody Alexa Fluor 488 goat anti-rabbit IgG (H+L), Thermofisher Scientific). Nuclei were stained using Hoechst dye (Thermofisher Scientific), and plates were imaged on an Opera Phenix High Content imaging platform equipped with 405 nm and 488 nm excitation. Finally, images were analyzed using script based algorithms. The main readout HEK-ATF4 monitored the ATF4 signal ratio between nucleus and cytoplasm. Tunicamycin induced an increase in the overall ATF4 ratio signal, which was prevented by ISR modulating example compounds. In addition, HEK-CellCount readout was derived from counting the number of stained nuclei corresponding to healthy cells. This readout served as an internal toxicity control.

Row | Structure (SMILES) | IC50 | IC50 (Homo sapiens, HEK293, 6 h)
1 | O=C(COc1ccc(Cl)c(F)c1)N[C@@H]1CCN(c2nnc(-c3ccc(Cl)cc3)o2)C[C@H]1O (stereo in doubt) [Example 3, 2-(4-chloro-3-fluorophenoxy)-N-[(3R*,4R*)-1-[5-(4-chlorophenyl)-1,3,4-oxadiazol-2-yl]-3-hydroxypiperidin-4-yl]acetamide] | 0.001 to 0.5 µM | 
2 | O=C(COc1ccc(Cl)c(F)c1)N[C@@H]1CCN(c2nnc(-c3ccc(Cl)cc3)o2)C[C@H]1O (stereo in doubt) [Example 11, 2-(4-Chloro-3-fluorophenoxy)-N-[(3R,4R)-1-[5-(4-chlorophenyl)-1,3,4-oxadiazol-2-yl]-3-hydroxypiperidin-4-yl]acetamide] | 0.5 to 2 µM | 
3 | O=C(COc1ccc(Cl)c(F)c1)N[C@H]1CCN(c2nnc(-c3ccc(Cl)cc3)o2)C[C@@H]1O (stereo in doubt) [Example 12, 2-(4-Chloro-3-fluorophenoxy)-N-[(3S,4S)-1-[5-(4-chlorophenyl)-1,3,4-oxadiazol-2-yl]-3-hydroxypiperidin-4-yl]acetamide] |  | 0.001 to 0.5 µM
4 | O=C(COc1ccc(Cl)c(F)c1)NC1CCN(c2nnc(-c3ccc(Cl)cn3)o2)CC1 [Example 1, 2-(4-chloro-3-fluorophenoxy)-N-{1-[5-(5-chloropyridin-2-yl)-1,3,4-oxadiazol-2-yl]piperidin-4-yl}acetamide] |  | 0.001 to 0.5 µM
5 | O=C(COc1cnc(Cl)c(F)c1)NC1CCN(c2nnc(-c3ccc(Cl)cc3)o2)CC1 [Example 2, 2-[(6-chloro-5-fluoropyridin-3-yl)oxy]-N-{1-[5-(4-chlorophenyl)-1,3,4-oxadiazol-2-yl]piperidin-4-yl}acetamide] |  | 0.001 to 0.5 µM
6 | O=C(COc1ccc(Cl)c(F)c1)NC1CCN(c2nnc(-c3ccc(Cl)cc3)o2)CC1 [Example 4, 2-(4-chloro-3-fluoro-phenoxy)-N-[1-[5-(4-chlorophenyl)-1,3,4-oxadiazol-2-yl]-4-piperidyl]acetamide] |  | 0.001 to 0.5 µM
7 | O=C(COc1ccc(Cl)c(F)c1)NC1CCN(c2nnc(CCCC(F)(F)F)o2)CC1 [Example 5, 2-(4-Chloro-3-fluorophenoxy)-N-{1-[5-(4,4,4-trifluorobutyl)-1,3,4-oxadiazol-2-yl]piperidin-4-yl}acetamide] |  | 0.5 to 2 µM
8 | O=C(COc1ccc(Cl)c(F)c1)NC1CCCN(c2nnc(-c3ccc(Cl)cc3)o2)CC1 (centres unmarked) [Example 6, 2-(4-chloro-3-fluorophenoxy)-N-{1-[5-(4-chlorophenyl)-1,3,4-oxadiazol-2-yl]azepan-4-yl}acetamide] |  | 0.5 to 2 µM
9 | O=C(COc1ccc(Cl)c(F)c1)N[C@H]1[C@@H]2CN(c3nnc(-c4ccc(Cl)cc4)o3)C[C@@H]21 [Example 7, 2-(4-Chloro-3-fluorophenoxy)-N-[(1R,5S,6R)-3-[5-(4-chlorophenyl)-1,3,4-oxadiazol-2-yl]-3-azabicyclo[3.1.0]hexan-6-yl]acetamide] |  | 0.5 to 2 µM
10 | O=C(COc1ccc(Cl)c(F)c1)NN1CCN(c2nnc(-c3ccc(Cl)cc3)o2)CC1 [Example 8, 2-(4-Chloro-3-fluorophenoxy)-N-{4-[5-(4-chlorophenyl)-1,3,4-oxadiazol-2-yl]piperazin-1-yl}acetamide] |  | 0.001 to 0.5 µM
11 | O=C(COc1ccc(Cl)c(F)c1)NC1CCN(c2nnc(OCCOC(F)(F)F)o2)CC1 [Example 9, 2-(4-chloro-3-fluorophenoxy)-N-(1-{5-[2-(trifluoromethoxy)ethoxy]-1,3,4-oxadiazol-2-yl}piperidin-4-yl)acetamide] |  | 0.001 to 0.5 µM
12 | O=C(COc1ccc(Cl)c(F)c1)NC1CCN(c2nnc(N3CC(OC(F)(F)F)C3)o2)CC1 [Example 10, 2-(4-chloro-3-fluorophenoxy)-N-(1-{5-[3-(trifluoromethoxy)azetidin-1-yl]-1,3,4-oxadiazol-2-yl}piperidin-4-yl)acetamide] |  | 0.001 to 0.5 µM
13 | O=C(COc1ccc(Cl)c(F)c1)N[C@H]1CCCN(c2nnc(-c3ccc(Cl)cc3)o2)CC1 [Example 13, 2-(4-Chloro-3-fluorophenoxy)-N-[(4S)-1-[5-(4-chlorophenyl)-1,3,4-oxadiazol-2-yl]azepan-4-yl]acetamide] |  | 0.5 to 2 µM
14 | O=C(COc1ccc(Cl)c(F)c1)N[C@@H]1CCCN(c2nnc(-c3ccc(Cl)cc3)o2)CC1 [Example 14, 2-(4-chloro-3-fluorophenoxy)-N-[(4R)-1-[5-(4-chlorophenyl)-1,3,4-oxadiazol-2-yl]azepan-4-yl]acetamide] |  | 2 to 15 µM
